One molecule from patent publication US7371776B2, “Methods and compositions for treating cancer” (Mars, Incorporated, priority 2004, dated 2008) can be followed below.

What all share (format): cell-based, human
In assay [1] the test system is normal mortal HMECs. The assay can be described thus: Crystal violet cellular proliferation assay. To be noted: 100 μg/mL. The text has this: Immortalized human mammary epithelial cells (HMECs), MCF-10A, 184A1N4 and 184B5, normal, finite-life-span HMECs (1001-8, CC-2551) at passage 8, originally derived from mammoplasty breast tissues, were purchased from Clonetics-BioWhittaker, Inc. (Waskersville, Md.). Cell lines generated by introduction of c-MYC, ErbB2 and RAS oncogene into MCF-10A cells (MCF-10A-ErbB2/Ras cells and MCF-10A-c-Myc) were also used.
Normal mortal HMECs were maintained according to the supplier's instructions in mammary epithelial cell growth medium (CC-3152) (Clonetics) supplemented with 52 μg of bovine pituitary extract per ml, 10 ng/mL of human EGF, 5 μg/mL of insulin, and 0.5 μg/mL of hydrocortisone and were grown in 37° C. incubators with low (0.1 to 0.2%) CO2 settings.
One×10^3 cells per well were seeded in 96 well dishes (Coming Costar, Cambridge, Mass.). Primary cultures of HMECs, A1N4 and 184B5 cells were evaluated at two different cell densities (seeded at 1×10^3 and 2×10^3 per well). […]
Cells were treated for 1, 2, 3, 6, 8 and 10 days, but in some cases, the samples were collected at days 2, 3, 4, 7 and 10 post-treatment. […] The optical density (OD) of samples was read at 550 nm on an Ultramark Microplate Imagining System (BioRad, Philadelphia, Pa.). […] Statistical significance was determined using the t test analysis.

The test system of assay [2] is pRb. Kind of assay: High resolution profiling (P-FILM) of pRb in MDA MB-231 cells. To be noted: 100 μg/mL, 48 and 72 hours. As to the method: (§1) Both p53 and pRb contain multiple phosphorylation sites, and evaluating each site separately provides a more accurate indication of each protein's potential function. Therefore, a high resolution functional profiling of the proteins was performed using P-FILM technology (20/20 Gene Systems, Inc.).
The same protein samples as those used for PDVF membrane blotting were used. Ten μg of each protein sample of MDA MB-231 cells, and in some cases MDA MB-468 and MCF-7 cells, treated with 100 μg /mL of pentamer or DMSO-treated controls, were separated by PAGE on 4-20% gradient gels (BioRad). Proteins were transferred on a stack of ten membranes, according to manufacturer's instructions (20/20 Gene Systems, Inc.). The membranes were probed with antibodies recognizing total and phosphorylated p53 (p53Ser6, Ser9, Ser15, Ser20, Ser37, Ser46 and Ser392) at 1:1000 dilution as recommended by the manufacturer (Cell Signaling). The secondary antibody used in all cases was anti-rabbit polyclonal 1:2000 (Amersham). Signals were visualized on BIOMAX MR film (Kodak). The profiling of pRb was done using anti-phospho pRb (Ser780, Ser 795 and Ser 807/811) and anti-pRb polyclonal antibody (Cell Signaling) at a 1:1000 dilution. The secondary antibody used in all cases was anti-rabbit at 1:2000 dilution (Amersham). Image analysis was performed with Kodak 1D image analysis software. […]

The subject of assay [3] is MDA MB-468 cells. The assay can be described thus: Crystal violet cellular proliferation assay. To be noted: 100 μg/mL, ten days after treatment. As to the method:
(§2) Human breast cancer cell lines MDA MB-231, MDA MB-436, MD MB-468, SKBR-3 and MCF-7 were obtained from the Lombardi Comprehensive Cancer Center (LCC) Tissue Culture Shared Resource. MDA MB-231, MDA MB-436, MD MB-468 and SKBR-3 are p53-mutated estrogen receptor (ER)-negative cells. MDA MB-231 also contains a mutation in the K-ras oncogene. The MCF-7 cell line is ER-positive and non-mutated for p53. The cells were grown in complete media containing DMEM (Gibco-BRL, Gaithersburg, Md.) supplemented with 10% fetal bovine serum (FBS) (Quality Biological, Gaithersburg, Md.). In addition, media for MCF-7 contained non essential amino acids (Gibco-BRL, Gaithersburg, Md.).
(§3) One×10^3 cells per well were seeded in 96 well dishes (Coming Costar, Cambridge, Mass.). Primary cultures of HMECs, A1N4 and 184B5 cells were evaluated at two different cell densities (seeded at 1×10^3 and 2×10^3 per well). After 24 hours of cell attachment, cells in triplicate wells were treated with pentamer at a concentration of 100 μg/mL. The cells on the same plate were treated with corresponding controls: (i) media containing DMSO, and (ii) media with no additions.
(§4) Cells were treated for 1, 2, 3, 6, 8 and 10 days, but in some cases, the samples were collected at days 2, 3, 4, 7 and 10 post-treatment. Each treatment was conducted in triplicate. Samples were collected at each time point as follows: media was removed and 50 μL of crystal violet solution (0.1% of crystal violet in 0.1 M citric acid solution) was added to each well at room temperature and plates were incubated for 15 minutes, followed by washing with deionized water. Plates were dried at room temperature overnight. The following day, plates were destained by adding 100 μL of 0.1 M sodium citrate solution into each well. Plates were incubated for one hour. The optical density (OD) of samples was read at 550 nm on an Ultramark Microplate Imagining System (BioRad, Philadelphia, Pa.). The experiment was repeated twice resulting in an average of nine measurements per sample. Statistical significance was determined using the t test analysis.

The test system of assay [4] is SKBR-3 cells. The assay can be described thus: Crystal violet cellular proliferation assay. To be noted: 100 μg/mL, ten days after treatment. As to the method: as §2, §3, §4
Assay [5] concerns MDA MB-231 cells. Kind of assay: Crystal violet cellular proliferation assay. To be noted: 100 μg/mL, ten days after treatment. As to the method: as §2, §3, §4
The subject of assay [6] is MCF-7 cells. Kind of assay: Crystal violet cellular proliferation assay. To be noted: MCF-7 (wild type p53, ER-positive); 100 μg/mL. As to the method: as §2, §3, §4
Assay [7] deals with MDA MB-436 cells. Kind of assay: Crystal violet cellular proliferation assay. To be noted: 100 μg/mL, ten days after treatment. As to the method: as §2, §3, §4
In assay [8] the test system is MCF-10A-c-Myc cells. Kind of assay: Crystal violet cellular proliferation assay. To be noted: 100 μg/mL. As to the method:
(§5) The MCF-10A cell line (spontaneously immortalized, non-tumorigenic human mammary epithelial cell line with non-mutated p53) was maintained in F-12/DMEM medium supplemented with 5% horse serum (Gibco), 20 ng/mL EGF (Upstate Biotechnology Incorporated, Lake Placid, N.Y.), 10 μg/mL insulin (Biofluids, Rockville, Md.), and 500 ng/mL hydrocortisone. The same media were used for MCF-10A-ErbB2/Ras cells (Ciardiello, F. et al., Mol Carcinog., 6: 43-52. 1992) and MCF-10A-c-Myc cells (Sheen, J-H. et al., Mol. Cell. Biol., 22: 1819-1833, 2002).
as §3, §4

Assay [9] concerns MCF-10A cells. The assay can be described thus: Crystal violet cellular proliferation assay. To be noted: 100 μg/mL. As to the method: as §5, §3, §4
The test system of assay [10] is MCF-10A-ErbB2/Ras cells. The assay can be described thus: Crystal violet cellular proliferation assay. To be noted: 100 μg/mL. As to the method: as §5, §3, §4
Assay [11] deals with p53. The assay can be described thus: High resolution profiling (P-FILM) of p53 in MDA MB-468 cells. To be noted: 100 μg/mL. As to the method:
as §1
The same protein samples as those used for PDVF membrane blotting were used. Ten μg of each protein sample of MDA MB-231 cells, and in some cases MDA MB-468 and MCF-7 cells, treated with 100 μg /mL of pentamer or DMSO-treated controls, were separated by PAGE on 4-20% gradient gels (BioRad). Proteins were transferred on a stack of ten membranes, according to manufacturer's instructions (20/20 Gene Systems, Inc.). The membranes were probed with antibodies recognizing total and phosphorylated p53 (p53Ser6, Ser9, Ser15, Ser20, Ser37, Ser46 and Ser392) at 1:1000 dilution as recommended by the manufacturer (Cell Signaling). The secondary antibody used in all cases was anti-rabbit polyclonal 1:2000 (Amersham). Signals were visualized on BIOMAX MR film (Kodak). The profiling of pRb was done using anti-phospho pRb (Ser780, Ser 795 and Ser 807/811) and anti-pRb polyclonal antibody (Cell Signaling) at a 1:1000 dilution. The secondary antibody used in all cases was anti-rabbit at 1:2000 dilution (Amersham). Image analysis was performed with Kodak 1D image analysis software. Background corrected intensity values were normalized for loading by using GAPDH intensities. Numerical analysis was performed in Excel.

In the case of `Oc1cc(O)c2c(c1)O[C@H](c1ccc(O)c(O)c1)[C@H](O)[C@H]2c1c(O)cc(O)c2c1O[C@H](c1ccc(O)c(O)c1)[C@H](O)[C@H]2c1c(O)cc(O)c2c1O[C@H](c1ccc(O)c(O)c1)[C@H](O)[C@H]2c1c(O)cc(O)c2c1O[C@H](c1ccc(O)c(O)c1)[C@H](O)[C@H]2c1c(O)cc(O)c2c1O[C@H](c1ccc(O)c(O)c1)[C@H](O)C2` [pentamer, pentameric procyanidin], the “growth inhibited, in comparison to DMSO-treated controls” value in assay [1] came to 1.4 fold; in assay [3] it was 4 fold; in assay [4] it was 5.5 fold; in [5], 5 fold; in assay [7], 4.1 fold. The “phosphorylation of pRb on all tested residues (Ser780, Ser795 and Ser807/811)” value in assay [2] was “decrease”. In assay [2], the “protein expression of endogenous pRb” value is “decrease”. For the same molecule, the growth inhibition in [6] stood at 5.6 fold. The pentamer-induced growth inhibition entry in [8], in assay [9] and in assay [10] was “equally resistant” each time. In addition, the “percentage of p53 phosphorylated at Ser392 decreased, compared to untreated controls” value in [11] (MD MB-468) was determined as 33%. For the same molecule, the “expression of endogenous p53” value in assay [11] (MDA MB-468) is on record as “not significantly affected”. The “phosphorylation of p53 Ser15 and Ser46” value in assay [11] (MDA MB-468) is given as “not significantly affected”.
